Test results from patent publication US10874638B2, “Methods and compositions for modulating hormone levels” (priority 2014, dated 2020).

Columns and labels:
[1] = test system: orchidectomized male Sprague-Dawley rat; assay: Orchidectomized mature male rat model
[2] = test system: intact cynomolgus male and female monkeys; assay: Intact cynomolgus monkey model; format: in vivo; settings: for serum cholesterol decrease, of the corresponding Day −3 values: males and females
Experimental: Intact cynomolgus male and female monkeys are used to assess of the effects of the compositions provided herein or the individual SERM or SARM compounds on hypothalamic-pituitary-gonadal axis and lipid profile. All animals are dosed via oral or nasol gavage once daily for consecutive days with either vehicle or testing articles of different doses. The first day of dosing is designated Day 1 for all animals. Blood samples are collected for analysis of LH, FSH, T, Estrodiol, total cholesterol, triglycerides, cortisol, and coagulation parameters included prothrombin time (PT) and activated partial thromboplastin time on Days −3 and end of the study.
In this model, Compound 2 was dosed at 0, 5, 50, 150, and 450 mg/kg/day for 14 days. […] In a separate study, the compound was dosed at 0, 3, 10, 30, 120, and 500 mg/kg/day for 30 days. […] Serum testosterone was suppressed in males as indicated by lower 75th, 50th, and 25th percentile values in samples from treated monkeys than vehicle controls.
In this model, Compound 1 was dosed at 0, 1, 5, and 15 mg/kg/day for 3 months.

healthy young men = settings: cited from earlier work
[3] = test system: ovariectomized mature female rats; assay: Ovariectomized mature female rat model; format: in vivo; settings: restoration mode
Experimental: Ovariectomized mature female rats are used to characterize primarily bone activity of the compositions provided herein or the individual SERM or SARM compounds. A sham group is used as control. The model can be run in either maintenance mode where the animals are dosed one day after the ovariectomy or restoration mode where the animals are dosed seven to eight weeks after the surgery. The rats are scanned by dual energy x-ray absorptiometry and sorted into experimental groups based upon femoral bone mineral content (BMC). Three dosages of testing compositions/compounds are administered orally once a day for 4, 8, or 12 weeks and estradiol and testosterone are administered subcutaneously to the reference groups. Animals received subcutaneous injections of fluorochrome markers for bone histomorphometric analysis. Alizarian Red S was prepared as a 3% solution and given at a dose of 30 mg/kg at the time of the baseline scan. Calcein was administered 10 days and 3 days prior to necropsy.
Approximately 24 hours after the last dose, blood is collected and the gastrocnemius muscle, plantaris muscle, uterus, clitoral glands, clitoris and inguinal fat pads were isolated, blotted and weighed individually. The left femur and lumbar vertebra L5 are wrapped in saline-soaked gauze and stored at −20° C. for biochemical analysis. The right femur and lumbar vertebrae L3-L4 are collected and stored in 70% ethanol for histomorphometry. The right tibia is collected in formalin for histological analysis. The left tibia is collected on dry ice and stored at −20° C. for measurement of alkaline phosphatase activity.
BMC, bone mineral density (BMD) and bone length are measured by pDEXA on an entire femur. The coefficient of variation for repeated measurement of the isolated femur is less than 0.4% for the BMC and the BMD measurements. […] Serum osteocalcin, a marker for bone turnover, and alkaline phosphatase derived from the tibial periosteum are also measured. Whole femurs are collected for biomechanical analysis and thawed at room temperature prior to testing. Peak load and peak displacement are measured directly from the load cell and the crosshead, respectively. Stiffness is calculated from the slope of the linear region of the load/displacement curve. Lumbar vertebra L5 is also measured in the mechanical testing for bone strength.
Bone histomorphometry is performed to indicate growth of the new bone during the study. The section from the lumbar vertebral bodies is used for histomorphometric indices of cancellous bone, while the sections of the femur mid-shafts are used for histomorphometric indices of cortical bone.
Body weight, gastrocnemius weight and plantaris weight changes are measured indicating anabolic activity of the testing compositions/compounds on skeletal muscle. Inguinal fat pad weight is used as a representative fat pad to assess the effects of the testing compounds on body fat. Clitoral gland and clitoral weights are measured to assess the virilizing effect of drugs.
In the maintenance node of this model, (5R,6S)-6-phenyl-5-[4-(2-pyrrolidin-1-ylethoxy)phenyl]-5,6,7,8-tetrahydronaphthalen-2-ol (Compound 1) was dosed daily at 0 (sham), 0 (OVX), 0.01, 0.05, and 0.25 mg/kg for 8 weeks and 17α-ethynylestradiol was dosed at 0.03 mg/kg/day. […] Micro-computerized tomography (uCT) measured the density and connectivity of the trabecular bone in the femur and pQCT measured at the distal femur.
In the restoration mode of this osteopenic female rat model, 4-(2(R)-(1(S)-hydroxyl-2,2,2-trifluoroethyl)-pyrrolidinyl)-2-trifluoromethylbenzonitrile (Compound 2, Formula I, R^1═CF3, R^2═R^3═H) was dosed at 0 (sham), 0 (OVX), 0.03, 0.3, and 3 mg/kg orally for 12 weeks. […] Compound 2 suppressed cancellous bone turnover while increasing trabecular bone volume and increasing bone mineral density at the lumbar spine.
In the same experiment of Compound 2, another SARM compound, ostarine, was dosed at 0.03, 0.3, and 3 mg/kg/day orally for 12 weeks.

[4] = females, 3 to 500 mg/kg/day for 30 days
[5] = 0.03, 0.3, 3 mg/kg orally for 12 weeks

N#Cc1ccc(N2CCC[C@@H]2[C@H](O)C(F)(F)F)cc1C(F)(F)F [Compound 2, 4-(2(R)-(1(S)-hydroxyl-2,2,2-trifluoroethyl)-pyrrolidinyl)-2-trifluoromethylbenzonitrile]
exposure versus dose ([1]; 0.03 to 100 mg/kg/day for 14 days, rat): dose proportional exposure | efficacy (relative to sham) in sex accessory and sebaceous glands ([1]; at doses that maintained levator ani weights at sham equivalent levels): lower efficacy | serum LH ([1]; at high doses): suppressed serum LH below sham-equivalent levels | AUC24 ([1]; at the dose of 2 mg/kg/day, rat): 0.2 | activity in musculoskeletal endpoints ([1]; restoration mode, 0.03 to 100 mg/kg/day for 14 days): positive activity | dose reducing the elevated LH levels in castrate rats ([1]; restoration mode, 14 days): ≥ 10 mg/kg/day | dose that maintained levator ani weight at sham-equivalent levels ([1]; restoration mode, 14 days): 2 mg/kg/day | tissue selectivity toward the muscle endpoint ([1]; restoration mode, 14 days): tissue selective activity | triglycerides ([2]; Day 14, 5 to 450 mg/kg/day for 14 days): without dose dependent changes | serum cholesterol decrease, of the corresponding Day −3 values ([2]; Day 14, 5 mg/kg/day for 14 days): 71% | serum cholesterol decrease, of the corresponding Day −3 values ([2]; Day 14, 50 mg/kg/day for 14 days): 81% | serum cholesterol decrease, of the corresponding Day −3 values ([2]; Day 14, 150 mg/kg/day for 14 days): 79% | serum cholesterol decrease, of the corresponding Day −3 values ([2]; Day 14, 450 mg/kg/day for 14 days): 84% | effect on the hypothalamic-pituitary-gonadal axis ([2]; female and male monkeys, 3 to 500 mg/kg/day for 30 days): suppressive effect | serum FSH [2, 4]: significantly suppressed | serum estradiol [2, 4]: significantly suppressed | serum testosterone ([2]; males, lower 75th, 50th, 25th percentile values than vehicle controls, 30 days): suppressed | serum FSH ([2]; sentence follows the male results, 30 days): not significantly altered | safety and pharmacokinetic profiles (healthy young men): favorable safety and pharmacokinetic profiles | activity on the clitoral gland, clitoris or uterus relative to testosterone ([3]; 0.3 mg/kg/day dose): reduced activity | efficacy on muscle and bone compared with testosterone ([3]; 0.3 mg/kg/day dose): more efficacious | bone mineral density at the lumbar spine [3, 5]: increasing | cancellous bone turnover [3, 5]: suppressed | cortical bone mass, density, strength, stiffness and periosteal bone formation rates [3, 5]: significantly increased | gastrocnemius muscle weight, plantaris muscle weight and body weight [3, 5]: increased | inguinal fat pad weight [3, 5]: without affecting | trabecular bone volume [3, 5]: increasing
